The text below walks through data of ChEMBL document CHEMBL1201862, “PubChem BioAssay data set” (2004).

Series [1] deals with Cytochrome P450 3A4 (Homo sapiens, UniProt P08684).
Series [2] addresses Cytochrome P450 2C9 (Homo sapiens, UniProt P11712).
Series [3] has as its target Cytochrome P450 2C19 (Homo sapiens, UniProt P33261). Put plainly: Cytochrome panel assay with activity outcomes. Panel member name: p450-cyp2c19 Compounds with AC50 equal or less than 10 uM are considered active. In kind it is functional.
Series [4] addresses Cytochrome P450 2D6 (Homo sapiens, UniProt P10635).
The target of series [5] is T1, Cytochrome P450 1A2 (Homo sapiens, UniProt P05177).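 Note: PubChem cytochrome P450 panel assay, CYP1A2 panel member.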
T1 sequence (P05177 whole entry): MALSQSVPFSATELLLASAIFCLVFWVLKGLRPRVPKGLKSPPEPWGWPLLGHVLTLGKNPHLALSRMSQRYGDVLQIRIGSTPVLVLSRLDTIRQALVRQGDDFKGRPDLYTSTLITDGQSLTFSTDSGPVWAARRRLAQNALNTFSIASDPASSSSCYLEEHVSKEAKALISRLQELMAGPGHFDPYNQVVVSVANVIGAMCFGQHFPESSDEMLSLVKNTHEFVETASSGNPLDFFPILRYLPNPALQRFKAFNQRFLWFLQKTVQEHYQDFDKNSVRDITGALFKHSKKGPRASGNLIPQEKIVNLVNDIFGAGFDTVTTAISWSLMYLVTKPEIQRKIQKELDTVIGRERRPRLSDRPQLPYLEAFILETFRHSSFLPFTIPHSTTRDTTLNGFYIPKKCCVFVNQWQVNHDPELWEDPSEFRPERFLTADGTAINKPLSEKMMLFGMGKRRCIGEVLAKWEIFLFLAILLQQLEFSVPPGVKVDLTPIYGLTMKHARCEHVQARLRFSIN

Series [6] is described as follows: inhibitors of firefly luciferase expression or activity, dose response, H4 neuroglioma cells, luminescence (AID 1990). It is filed as functional, cell-based.
The nature of series [7]: Luminescence Cell-Based Dose Response HTS to Identify Inhibitors of 5'UTR Stem-Loop Driven Prion Protein mRNA Translation in H4 Neuroglioblastoma Cells. [Related pubchem assays: 1827 (Project Summary), 1813 (Primary HTS)]. It is filed as functional.
The nature of series [8]: inhibitors of SNCA 5'UTR-driven reporter translation, confirmation, H4 neuroglioma cells, luminescence (AID 1988). In kind it is functional, cell-based.
Series [9] addresses T2, Corticotropin-releasing factor receptor 2/Corticotropin-releasing factor-binding protein (Homo sapiens, UniProt P24387+Q13324).
T2 sequence (Q13324 whole entry): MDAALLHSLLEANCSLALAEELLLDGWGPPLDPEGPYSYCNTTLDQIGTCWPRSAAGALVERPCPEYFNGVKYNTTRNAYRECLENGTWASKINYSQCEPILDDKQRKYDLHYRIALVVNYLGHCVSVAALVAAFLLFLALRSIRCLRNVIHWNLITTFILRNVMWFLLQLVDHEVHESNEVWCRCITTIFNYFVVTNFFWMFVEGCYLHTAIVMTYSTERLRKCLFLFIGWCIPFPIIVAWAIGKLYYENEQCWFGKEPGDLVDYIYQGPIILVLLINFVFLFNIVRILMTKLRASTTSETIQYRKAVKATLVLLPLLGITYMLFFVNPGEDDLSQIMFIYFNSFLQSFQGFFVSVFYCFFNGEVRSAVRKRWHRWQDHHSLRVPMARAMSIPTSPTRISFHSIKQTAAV
T2 sequence (P24387 whole entry): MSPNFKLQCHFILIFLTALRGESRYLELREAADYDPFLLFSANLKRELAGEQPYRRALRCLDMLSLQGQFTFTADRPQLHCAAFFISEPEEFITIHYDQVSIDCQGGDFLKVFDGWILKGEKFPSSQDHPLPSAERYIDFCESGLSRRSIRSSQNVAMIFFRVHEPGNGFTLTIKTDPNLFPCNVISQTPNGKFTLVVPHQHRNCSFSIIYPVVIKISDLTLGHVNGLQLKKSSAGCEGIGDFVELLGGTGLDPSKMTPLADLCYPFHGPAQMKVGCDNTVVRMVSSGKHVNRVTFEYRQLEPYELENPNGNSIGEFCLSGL
Kind of series: Dose Response confirmation of uHTS hits for small molecule antagonists of the CRF-binding protein and CRF-R2 receptor complex. The conditions noted are these: read-out: IC50_Mean. It is filed as functional.

Series [10] concerns the target T2, Corticotropin-releasing factor receptor 2/Corticotropin-releasing factor-binding protein. Kind of series: activators of CRF receptor 2 with binding protein – uHTS hits, confirmation (AID 602473). In kind it is functional. The settings on record: read-out: EC50_Mean.
The target of series [11] is T3, Heat shock factor protein 1 (Mus musculus, UniProt P38532).
T3 sequence (P38532 whole entry): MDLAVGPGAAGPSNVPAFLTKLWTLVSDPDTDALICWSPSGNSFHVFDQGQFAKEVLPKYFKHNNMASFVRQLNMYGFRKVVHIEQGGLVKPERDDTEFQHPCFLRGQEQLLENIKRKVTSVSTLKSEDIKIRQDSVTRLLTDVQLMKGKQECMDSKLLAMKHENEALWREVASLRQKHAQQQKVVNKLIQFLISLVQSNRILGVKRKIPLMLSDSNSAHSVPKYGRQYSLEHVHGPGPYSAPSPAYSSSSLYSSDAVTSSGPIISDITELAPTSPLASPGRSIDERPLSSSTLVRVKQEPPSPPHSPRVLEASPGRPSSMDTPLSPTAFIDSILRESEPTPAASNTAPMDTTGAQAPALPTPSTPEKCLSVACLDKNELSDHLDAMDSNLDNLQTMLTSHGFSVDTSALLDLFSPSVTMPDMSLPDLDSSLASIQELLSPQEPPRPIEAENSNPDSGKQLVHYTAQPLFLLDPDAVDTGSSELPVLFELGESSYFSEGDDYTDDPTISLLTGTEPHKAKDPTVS
Put plainly: inhibition of MG132-induced HSE-luciferase signal, confirmation, cell-based, NIH3T3, luminescence, dose retest (AID 2382).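 Note: NIH3T3 fibroblasts with HSF1-driven luciferase reporter stressed by proteasome inhibitor MG132; luminescence from HSF1-driven luciferase expression after 8 hours of MG132 stress.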 In kind it is functional.

Series [12] is described as follows: inhibitors of intracellular T. cruzi replication, confirmation, NIH3T3 host cells, beta-gal luminescence (AID 2044).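 Note: intracellular parasites grown in NIH/3T3 mouse fibroblasts as host cells; luminescent beta-galactosidase reporter signal from transgenic T. cruzi replicating inside host cells; inhibitors lower the luminescence signal.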 It is filed as functional, cell-based.
Series [13] in a line: cytotoxicity toward NIH3T3 fibroblasts, dose response, counter-screen, cell-based, ATP luminescence, mouse fibroblasts (AID 2010).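 Note: cells exposed to compound for about 90 hours before reading.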 It is filed as functional. A general note: The purpose of a counterscreen is to sort out artefacts and off-target activity.

Several values for one entry are separate records, joined by “and”; a condition that tells them apart may be missing. Equal values may be shown once. Activity calls are given as the source filed them. A value given as a limit tells only on which side of the number the result lay.

Cytochrome P450 2D6, sequence (P10635 whole entry): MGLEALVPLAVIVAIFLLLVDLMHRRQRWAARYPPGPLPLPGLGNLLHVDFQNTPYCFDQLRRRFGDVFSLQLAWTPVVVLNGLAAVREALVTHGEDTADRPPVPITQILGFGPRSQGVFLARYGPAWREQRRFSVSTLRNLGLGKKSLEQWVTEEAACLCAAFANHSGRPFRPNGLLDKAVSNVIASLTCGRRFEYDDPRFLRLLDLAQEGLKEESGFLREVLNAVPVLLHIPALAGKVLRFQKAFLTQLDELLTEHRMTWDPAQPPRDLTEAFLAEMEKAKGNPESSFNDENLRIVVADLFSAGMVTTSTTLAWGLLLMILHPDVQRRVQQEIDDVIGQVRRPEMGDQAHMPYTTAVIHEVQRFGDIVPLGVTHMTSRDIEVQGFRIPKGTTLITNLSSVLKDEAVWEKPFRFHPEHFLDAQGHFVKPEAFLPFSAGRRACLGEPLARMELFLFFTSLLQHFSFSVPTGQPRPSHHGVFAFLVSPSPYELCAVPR
Cytochrome P450 3A4, sequence (P08684 whole entry): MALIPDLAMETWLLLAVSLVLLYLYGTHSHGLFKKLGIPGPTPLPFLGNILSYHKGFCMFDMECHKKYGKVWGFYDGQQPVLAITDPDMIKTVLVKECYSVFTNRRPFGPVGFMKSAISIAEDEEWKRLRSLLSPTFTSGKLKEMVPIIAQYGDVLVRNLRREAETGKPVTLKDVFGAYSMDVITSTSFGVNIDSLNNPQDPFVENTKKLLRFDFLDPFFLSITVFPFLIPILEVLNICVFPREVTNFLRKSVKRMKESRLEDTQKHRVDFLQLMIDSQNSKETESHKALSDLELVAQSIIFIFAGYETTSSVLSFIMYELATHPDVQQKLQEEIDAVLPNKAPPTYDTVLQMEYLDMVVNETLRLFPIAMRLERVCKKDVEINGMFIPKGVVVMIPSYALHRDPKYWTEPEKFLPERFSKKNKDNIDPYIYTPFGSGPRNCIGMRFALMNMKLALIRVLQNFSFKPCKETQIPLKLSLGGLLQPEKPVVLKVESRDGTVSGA
Cytochrome P450 2C9, sequence (P11712 whole entry): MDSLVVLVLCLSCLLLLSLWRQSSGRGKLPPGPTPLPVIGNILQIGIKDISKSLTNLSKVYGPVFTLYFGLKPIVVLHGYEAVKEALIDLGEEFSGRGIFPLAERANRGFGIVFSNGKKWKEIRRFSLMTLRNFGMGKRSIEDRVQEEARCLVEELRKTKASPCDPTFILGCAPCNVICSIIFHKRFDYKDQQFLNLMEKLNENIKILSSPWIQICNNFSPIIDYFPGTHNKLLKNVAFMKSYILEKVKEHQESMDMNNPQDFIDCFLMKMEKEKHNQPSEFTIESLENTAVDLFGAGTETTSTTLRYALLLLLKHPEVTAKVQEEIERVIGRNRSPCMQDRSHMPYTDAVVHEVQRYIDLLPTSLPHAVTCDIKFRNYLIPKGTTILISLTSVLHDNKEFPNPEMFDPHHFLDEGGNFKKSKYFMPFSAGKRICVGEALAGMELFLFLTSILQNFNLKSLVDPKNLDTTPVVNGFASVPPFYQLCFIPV
Cytochrome P450 2C19, sequence (P33261 whole entry): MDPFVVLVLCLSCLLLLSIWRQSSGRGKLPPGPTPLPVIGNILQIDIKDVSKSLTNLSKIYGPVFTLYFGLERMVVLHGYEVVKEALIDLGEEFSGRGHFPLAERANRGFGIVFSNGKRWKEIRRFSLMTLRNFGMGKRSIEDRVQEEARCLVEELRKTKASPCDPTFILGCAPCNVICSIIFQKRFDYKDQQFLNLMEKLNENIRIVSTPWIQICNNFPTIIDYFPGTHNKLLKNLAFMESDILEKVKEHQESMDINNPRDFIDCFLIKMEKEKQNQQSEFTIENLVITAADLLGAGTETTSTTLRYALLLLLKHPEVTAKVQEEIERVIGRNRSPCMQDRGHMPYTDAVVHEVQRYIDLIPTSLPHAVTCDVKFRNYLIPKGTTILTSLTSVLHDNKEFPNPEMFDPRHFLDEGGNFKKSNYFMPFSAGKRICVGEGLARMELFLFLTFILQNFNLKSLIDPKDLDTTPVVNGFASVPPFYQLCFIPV

As to `Cc1cc(NC(=O)CSc2ccc3nnc(-c4ccc(F)cc4)n3n2)no1`, the AC50 – broadly, the midpoint of the concentration-response curve, whichever way the signal moves – in [1] was 14.1 µM (inconclusive); in series [2] it was 25.1 µM (inconclusive).
Take `O=C(c1ccncc1)N1CCC2(CC1)CCN(c1ccccn1)CC2`: the AC50 in series [3] (read-out: AC50) was 1 µM (inconclusive); in series [4] it was 31.6 µM (inconclusive); in series [5], 12.6 µM (inconclusive).
As to `CO[C@@H]1/C=C\CC(=O)N[C@@H](C)C(=O)OC[C@@H](OC)[C@H](C)/C=C\CC(=O)OC[C@H]1C`, the AC50 in [1] is 3.98 µM (inconclusive).
As to `CC[C@@]1(O)C(=O)COc2c1cc1n(c2=O)Cc2c-1nc1cccc(C(C)C)c1c2[Si](C)(C)C`, the AC50 in series [1] is 15.8 µM (inconclusive).
Still for that read-out and setting: next, `O=C(Nc1cccc(F)c1)N1CCC2(CC1)CCN(C(=O)c1ccncc1)CC2`: 12.6 µM (inconclusive).
Consider `Cc1noc(C)c1-c1cncnc1NCc1cccnc1`, for which the AC50 in series [3] (read-out: AC50) is 15.8 µM (inconclusive).
Regarding `CSC1=N/C(=C\c2ccc3c(c2)OCO3)C(=O)S1`, in [1], the AC50 was 7.94 µM (inconclusive).
Turning to `O=C(Nc1ccccn1)c1cc(-c2cccc(Cl)c2)nc2ccccc12`, the EC50 in [6] is > 120 µM (not active); in series [7], > 120 µM (not active); in series [8] it was 15.3 µM (active).
For `CCOc1ccc(C2=Nn3c(nnc3-c3ccco3)SC2)cc1`, the AC50 in series [1] is 15.8 µM (inconclusive).
Regarding `COc1ccc(CCN=C(NS(=O)(=O)c2ccc(Cl)cc2)c2ccccc2)cc1`, the EC50 in series [6], in series [7] and in series [8] was > 120 µM (not active) each time.
Turning to `CCNc1ncc2nc(-c3cccs3)c(=O)n(Cc3cccs3)c2n1`, the AC50 in series [3] (read-out: AC50) is 10 µM (inconclusive); in [2] it was 39.8 µM (inconclusive).
With `CCOC(=O)N1CCN(C(=O)c2ccc3nc(SCc4ccc(F)cc4)n(C)c3c2)CC1`, the IC50 in [9] was > 47.1 µM (inactive). The EC50 in series [10] was > 53 µM (inactive). Also, in series [1], the AC50 was 39.8 µM (inconclusive).
For the compound `C[n+]1cccc(CNC(=O)C=NO)c1`, the AC50 in series [3] (read-out: AC50) is 10 µM (inconclusive).
With `COC(=O)c1c(C)ccc2c(O)c3c(cc12)C(=O)c1c2c(cc(O)c1C3=O)[C@@]1(C)O[C@@](C)(O2)[C@@H](O)[C@H](N(C)C)[C@H]1O`, the AC50 was 3.98 µM (inconclusive) in series [3] (read-out: AC50), 5.01 µM (inconclusive) in series [5] and 2.51 µM (inconclusive) in series [2].
Regarding `COc1cccc(Cn2c(=O)c(-c3cccc(F)c3)nc3cncnc32)c1`, the AC50 was 20 µM (inconclusive) in [4] and 7.94 µM (inconclusive) in series [1].
Consider `COc1ccc(OC)c(N(CC(=O)N2CCc3ccccc3C2)S(C)(=O)=O)c1`, for which the AC50 is 11.2 µM (inconclusive) in series [3] (read-out: AC50), 15.8 µM (inconclusive) in [5] and 12.6 µM (inconclusive) in [2].
As for `CCCCN1CN=C(S)N(c2ccc(C(=O)OCC)cc2)C1`, the EC50 in [11] was > 195 µM (not active).
Consider `Cc1ccc(C)c(NC(=S)N(CCc2nc3cc(C)c(C)cc3[nH]2)Cc2cccnc2)c1`, for which the EC50 in [12] was 0.813 µM (active); in series [13] it was > 60 µM (not active). The AC50 is 2 µM (inconclusive) in [3] (read-out: AC50) and 4.47 µM (inconclusive) in series [5].
Turning to `N#Cc1cccc(-c2nc(Nc3ccncc3)c3ccccc3n2)c1`, the AC50 was 0.501 µM (inconclusive) in series [1] and 1.58 µM (inconclusive) in series [2].
Take `Cc1cc(C)n(-c2nc3c(c(=O)[nH]c(=O)n3C)n2CC(O)COc2ccc(Cl)cc2Cl)n1` (stereo not drawn): the values for the EC50 in series [6], in series [7] and in series [8] were 11.6 µM (active), 10.3 µM (active) and 9.24 µM (active), respectively.
`Cc1ccccc1CS(=O)(=O)CCC(=O)NCCCN1CCN(c2ccccc2F)CC1`: the values for the AC50 entry in [3] and in series [2] were “inconclusive” and 5.62 µM (inconclusive), respectively.
Regarding `O=C1N=C(N2CCOCC2)S/C1=C/c1cccs1`, the AC50 in series [3] (read-out: AC50) is 25.1 µM (inconclusive).
With `O=c1c2c(n3cnnc3n1-c1ccccc1)-c1ccccc1CC21CCCCC1`, the concentration at half-maximal activity (AC50) entry in series [3] was “inconclusive”; in series [1] it was 15.8 µM (inconclusive).
With `Cc1ccc(C(=O)Nc2cccnc2Oc2ccc(Cl)cc2)cc1`, the values for the EC50 in [6], in series [7] and in [8] were 17.6 µM (active), > 120 µM (not active) and > 120 µM (not active), respectively.
Regarding `CN(C)Cc1ccccc1-c1nccc(N(C)Cc2ccco2)n1`, the AC50 in [1] is 31.6 µM (inconclusive).
Take `O=C(NCCNS(=O)(=O)c1ccc(Cl)cc1)c1cc(OCC(F)(F)F)ccc1OCC(F)(F)F`: the AC50 was 3.16 µM (inconclusive) in series [4], 2.82 µM (inconclusive) in series [5], 7.08 µM (inconclusive) in series [1] and 0.0251 µM (inconclusive) in series [2].
Regarding `O=C(CCn1nc(-c2ccc(Cl)cc2)c2ccccc2c1=O)NCCN1CCOCC1`, the AC50 in series [3] (read-out: AC50) is 28.2 µM (inconclusive); in series [4], 15.8 µM (inconclusive); in series [2], 17.8 µM (inconclusive).
For the compound `COc1cc(Br)cc(/C=N/N(CCO)C2=NS(=O)(=O)c3ccccc32)c1OC`, the EC50 was 18.5 µM (active) in [6], > 120 µM (not active) in [7] and 18.1 µM (active) in series [8].
On to `O=C(N/N=C/C=C/c1ccccc1)c1[nH]nc2c1CCC2`, for which the EC50 in series [6] is 10.6 µM (inconclusive); in series [8] it was 3.42 µM (active).
Take `COc1cc2c(cc1OC)[C@]13CC[N@+]4(C)CC5=CCO[C@H]6CC(=O)N2[C@@H]1[C@@H]6[C@@H]5C[C@]34O`: the AC50 in [1] was 1 µM (inconclusive).
Consider `C/C(=N\NC(=O)c1cccc(C)c1)c1cccc(NC(=O)c2ccco2)c1`, for which the AC50 in series [3] (read-out: AC50) was 39.8 µM (inconclusive); in series [5] it was 14.1 µM (inconclusive); in series [2], 39.8 µM (inconclusive).
For the compound `COc1ccccc1N1CCN(CCN2C(=O)CC3(CCCC3)CC2=O)CC1` [BMY-7378], the AC50 in [1] is 20 µM (inconclusive) and 39.8 µM (inconclusive).
Regarding `Cc1cccc(Nc2ncccc2C(=O)O)c1C` [NIXYLIC ACID], the EC50 in series [11] was > 195 µM (not active).
